The record followed here is patent publication US20230137491A1, “PEPTIDES AND USES THEREOF” (SINTICA BIOTECH SOCIETÀ A RESPONSABILITÀ LIMITATA …, priority 2020, published 2023).

Data set [1] has as its system melanoma cell lines (WM115, WM266-4, SKmel28, WM793B, 1205Lu). Description: MTT assay in melanoma cell lines. In kind it is cell-based, human. The procedure: (§1) 5×10^3 cells/well were seeded in 96-well culture plates. At different time points, cells were incubated with 0.5% MTT (3-(4,5-dimethylthiazol-2-yl)-2,5-diphenyltetrazolium bromide) for 4 h at 37° C. and then dissolved with 100 μl Isopropanol with 0.04N HCl. The plate was read at 560 nm with a reference filter of 650 nm. Results are expressed as viability percentage, as compared to control.
Five melanoma cell lines were used for testing the efficacy of XYZ or its non-PEGylated peptide component: WM115 and WM266-4, which are respectively the primary and metastatic melanoma derived from the same patient and expressing high levels of CD271, and SKme128, a metastatic melanoma cell line expressing low levels of CD271, WM793B, a primary melanoma, and 1205Lu derived from lung metastatic melanoma. The viability of the cell culture is assessed by MTT conversion. MTT solution is applied to the plates and placed into a cell culture incubator for 4 hours. The blue formazan metabolite produced by viable cells is then extracted into isopropanol and absorbance is measured at 570 nm using a spectrophotometer.
Background: Tetrazolium assays rely on reduction of a dye to a coloured formazan, in cell work by metabolically active cells.

Data set [2] relates to WM115 CD271 silenced (siRNA) melanoma cell line. Description: MTT assay in CD271-silenced (siRNA) cells. Format: cell-based, human. The note with it: WM115 transfected with CD271 siRNA.
Excerpt: (§2) FIG. 6. The peptide reduces melanoma cell viability through CD271. WM115 melanoma cell line was transiently transfected with CD271 siRNA, as shwon by western blotting. MTT assay was used to measure cell viability after treatment with the peptide (XYZ) or the diluent in siRNA and scramble cells. SKme128 melanoma cell line was transiently transfected with CD271 mRNA, as shown by western blotting. MTT assay was used to measure cell viability after treatment with the peptide (XYZ) or the diluent in siRNA and scramble cells. Student's t-test was used for comparison of the means.
as §1
Melanoma cells were plated in 2D for 24 h in antibiotic free medium. WM115 cell line was then transfected with scrambled or CD271 siRNA (50 nM and 100 nM, respectively) (Dharmacon Inc, Lafayette, Colo., USA) in antibiotic/FBS free medium supplemented with 0.1% BSA and 48 h later cells were seeded for MTT assay or lysed for western blotting.

For data set [3], the system named is SKMel28 melanoma cell lines overexpressing CD271. Briefly: MTT assay in cells overexpressing CD271 (CD271 viral vector). In kind it is cell-based, human. The settings on record: SKMel28 with CD271 viral vector.
Excerpt: as §2, §1
Skme128 cell line was plated according to the liquid overlay method. After 24 h, cells were transduced by infection with viral supernatant generated by CD271-LNSN packaging cells or by LNSN packaging cells (kindly provided from F. Mavilio) in appropriate medium for melanoma, as described previously in the presence of polybrene (8 μg/ml). 48 h after infection cells were lysed for WB analysis or seeded for MTT assay.

The subject of another data set is CD1 mice. Briefly: Acute toxicity testing (up and down procedure). Format: in vivo. The note with it: six CD1 mice, intravenous, 17.5 mg/kg to 1750 mg/kg, up to six days. The procedure: FIG. 10. No toxic effects in 6 mice treated with XYZ. Acute toxicity testing was performed in CD1 mice with different doses of XYZ up to six days after treatment. After one day of fasting, six mice were injected intravenously (28 G needle) through the tail vein with a total dose of 17.5, 175, 550 or 1750 mg/kg/mouse of XYZ in a physiological solution. 50 gr of food were available two hours later. The health status (coat and appearance) of mice was observed from the first day after treatment. (a) Mice were weighed prior to XYZ injection and then every day until the sixth day. The amount of ingested food (b) and drinking water (c) were measured.
Intravenous injections were performed in six CD1 mice (Charles River, Calco (MI) Italy) tails for administration from 17.5 mg/kg to 1750 mg/kg XYZ (FIG. 10).

In data set [4] the test system is melanoma cells derived from patient with BRAF mutation in zebrafish. Description: Zebrafish xenotransplant with melanoma cells from a patient with BRAF mutation. Format: in vivo. The note with it: embryos with metastasis counted 5 days post injection, versus control. On the procedure:
FIG. 11. The peptide reduces initial metastasis formation in zebrafish injected with melanoma cells. Metastatic melanoma cells from a patient with BRAF mutation were treated with the peptide, DTIC, the peptide in combination with DTIC, DTIC alone, BRAF inhibitor or left untreated. They were stained with Vibrant Cell Labelling Solution (red) and injected into the yolk of transparent zebrafish larvae and monitored. The number of embryos with metastasis was counted at 5 days post injection.
The use of melanoma biopsies was approved by the ethical committee (Comitato Etico dell'Area Vasta Emilia Nord). Biopsies were taken from the University Hospital Policlinico of Modena and patient gave inform consent. […]
Zebrafish handling was performed at the Zebrafish Centre of the University of Padova, Italy, under ethical committee (OPBA) authorization 407/2015-PR. […] Zebrafishes were monitored daily and documented from 1 day post injection (dpi) up to 1 week (experimental endpoint). […]
(§3) For xenotransplantation, albino embryos were mechanically dechorionated at 2 days post-fertilisation, anesthetized with tricaine 0.16 mg/ml and placed along plastic lanes immersed in 2% methylcellulose/PBS. […] Stained cells were loaded in a glass capillary needle and microinjected into the yolk (about 50 cells/embryo), Xenotransplanted embryos were monitored daily and documented from one day post injection up to one week.

Data set [5] relates to SKmel 28 cell line in zebrafish. Briefly: Zebrafish xenotransplant with SKmel28 cell line. In kind it is in vivo. The settings on record: SKmel28, embryos with metastasis counted 5 days post injection. The procedure:
FIG. 12. […] SKMel28 melanoma cell line was treated with XYZ, DTIC, the peptide in combination with DTIC, or left untreated. They were stained with Vibrant Cell Labelling Solution (red) and injected into the yolk of transparent zebrafish larvae and monitored. The number of embryos with metastasis was counted at 5 days post injection.
Zebrafish handling was performed at the Zebrafish Centre of the University of Padova, Italy, under ethical committee (OPBA) authorization 407/2015-PR. Zebrafish embryos were obtained from natural spawning of albino adults, raised following standard protocols (Westerfield, M et al., 2000) and staged according to Kimmel et al. (1995). […] Zebrafishes were monitored daily and documented from 1 day post injection (dpi) up to 1 week (experimental endpoint). […]
as §3

Non-standard residues stand in square brackets, D forms with d. methoxy‑PEG 20 kDa = linear 20 kDa methoxy-PEG conjugated through D-Cys sulfur

For “Ac-DMet-DLeu-Gly-DIle-DIle-DAla-Gly-DLys-DAsn-DSer-Gly-DCys-NH2 with a linear 20 kDa methoxy-PEG polymer conjugated to the D-Cys residue through the sulfur atom of the latter (Ac-[dM][dL]G[dI][dI][dA]G[dK][dN][dS]G[dC](methoxy‑PEG 20 kDa)-NH2) [XYZ]”, the “cell proliferation (MTT assay), dose dependence” value in data set [1] (WM115, WM266-4 and SKmel28, different doses and time points) is “diminishes cell proliferation, as shown by MTT assay, in a dose-dependent manner”. For the same substance, in data set [1] (five melanoma cell lines, 48 h and 96 h after treatment, no significant difference between PEGylated and non-PEGylated form), the “cell proliferation (MTT assay)” value is recorded as “reduce cell proliferation”. For the same substance, the “cell viability (MTT assay) in CD271-silenced cells” value in data set [2] is listed as “fails to reduce cell viability”. Also, in data set [3], the “cell death (MTT assay) in CD271-overexpressing cells” value is “induces cell death to a greater extent”. Moreover, in the data set on CD1 mice, the “acute toxic effect (appearance, weight, water and food intake)” value is “did not show any acute toxic effect”. Also, the “metastasis formation in zebrafish” value in data set [4] is “reduces metastasis formation”. Moreover, the “full metastasis in xenotransplanted zebrafish” value in data set [5] is “reduces full metastasis”.
